Earlier results in patent publication US20090169619A1, “CARBAMAZEPINE EXTENDED RELEASE DOSAGE FORM” (CorePharma LLC, priority 2005, published 2009).

solubility in water: poor solubility
Structure (SMILES): NC(=O)N1c2ccccc2C=Cc2ccccc21 [Carbamazepine, 5H-Dibenz[b,f]azepine-5-carboxamide]
